We go through one compound from patent US20170056381A1, “PYRIDOXAMINE FOR THE TREATMENT OF SICKLE CELL DISEASE, THALASSEMIA AND RELATED BLOOD DISEASES” (NANOMETICS LLC, priority 2014, published 2017).

Type in all cases: in vivo, mouse
In test [1] the test system is Berkeley mice. Nature of the test: Hypoxia/reoxygenation in Berkeley mice, intravital microscopy. The settings on record: single i.p. dose; Berkeley mice exposed to hypoxic stress.
Test [2] relates to NY1DD mice. As to the kind of experiment: Hypoxia/reoxygenation in NY1DD mice, intravital microscopy of cremaster venules. As to the method:
NY1DD mice (2×n=6) were exposed to hypoxia for 16 h (gas mixture=10% O2, 0.5% CO2 and balance N2). One group of NY1 DD was then be given an intraperitoneal (i.p.) dose of pyridoxamine (400 mg/kg), dissolved in phosphate buffered saline (PBS), prior to 3 h reoxygenation in ambient conditions. The second group of NY1 DD mice was put through the same hypoxia/reoxygenation process and given vehicle (PBS) as a negative control. Healthy C57 BL/6J mice were used as healthy controls and were not exposed to hypoxia/reoxygenation stress. At the end of the reoxygenation period, the cremaster muscle was excised for intravital microscopy analysis. Intravital microscopy: Mice were anesthetized i.p. with 10% urethane and 2% α-chloralose in saline (6 ml/kg). The animals were tracheotomized and the left carotid artery cannulated to monitor systemic arterial pressure. The open cremaster muscle was prepared according to the method of Baez. The surface of the open cremaster muscle was suffused with a bicarbonate Ringer's solution of the following millimolar composition: NaCl 135.0, KCl 5.0, NaHCO3 27.0, MgCl2 0.64 and glucose 11.6. pH was adjusted to 7.35-7.4 by continuous bubbling with […]. The osmolarity of the solution, as measured by a Microosmette (Precision Systems, Inc., Sudsbury, MA) was 320 mOsm which is similar to that reported for the mouse plasma. The cremaster muscle preparation was allowed to stabilize for 30 min before the initiation of the experiment. The temperature of the suffusion solution (flow rate, 5-6 ml/min) bathing the cremaster was maintained at 34.5-35° C. and monitored by a telethermometer (YSI Inc., Yellowsprings, Ohio) during the entire experiment. Oxygen tension of the suffusion solution bathing the tissue was determined using a microoxygen electrode (model MI-730; Microelectrodes Inc., Bedford, N.H.). Microscopic observations were carried out using microscope (model BH-2; Olympus Corp., Lake Success, N.Y.) equipped with a television camera (5000 Series; Cohu, Inc., San Diego, Calif.) and a Sony U-matic video recorder (model V05800; Sony Corp., Teaneck, N.J.). Identification of venules and arterioles for observation was determined according to the published procedure. Vessel luminal diameter was measured on-line by image shearing using an image shearing device (model 907; Instruments for Physiology and Medicine, San Diego, Calif.). Red cell velocity (Vrbc) was measured along the vessel centerline using the dual-slit photodiode technique of Wayland and Johnson […]. The dual-slit photo detector was placed over the projected image of the vessel and on-line analysis of the optical signals was performed using a cross-correlator as described by Tompkins et al. (Model 102 BF; instruments for Physiology and Medicine). Vrbc measurements were made using a water immersion ×40 objective and ×6.3 eyepiece. The wall shear rates were calculated from the mean Vrbc (Vmean) and vessel diameter. The centerline Vrbc was converted to the mean red cell velocity across the vessel diameter using a conversion factor of 1.6 (Vrbc/Vmean=1.6) originally described by Baker and Wayland. Shear rates along the wall of microvessel of a given internal diameter (D) were calculated using the relationship: Wall shear rate=8 Vmean/D. Estimates of volumetric flow rates (Q) were made from Vmean and the vessel cross-sectional area (π D^2/4). Rolling leukocytes were defined as those leukocytes that distinctly roll along the endothelial surface. The rolling leukocytes were easily distinguished because of their lower velocity compared with that of leukocytes and red cells in the flow. Rolling leukocyte velocity (μm/s) represented the time required for a rolling leukocyte to traverse a given length of venule. An average of rolling velocities of approximately ten leukocytes per venule was determined by frame-by-frame analysis of video replay. […]

Test [3] relates to Berkeley mice. Nature of the test: MRI perfusion (FAIR-Quipps) cerebral blood flow in Berkeley mice. Here is the method:
(§1) Experimental Design & Methods: Dose Efficacy Experiment: A single oral dose (gavage) of pyridoxamine (400 mg/kg) was administered to BERK mice (n=6) or C57bl WT mice (n=4) and CBF and deoxyHb levels measured (see below for Measurement Parameters) before treatment and 2 h, 24 h, 72 h, 5 days and 9 days after treatment. Measurement Parameters: Each animal was assessed for several parameters by magnetic resonance imaging (MRI) methods on a 9.4 T Agilent MRI system. The primary MRI methods included brain and muscle perfusion, water diffusivity and oxygenation. Data acquisition was by multi-shot (8) Echo Planer Imaging (msEPI) (segmented and interleaved). Perfusion data were acquired using amultislice FAIR-Quipps approach, and blood oxygenation was determined from T2w msEPI (BOLD). Inflammation was inferred from the mean diffusivity of water calculated from a Diffusion Tensor Imaging (DTI) measurement which estimates the apparent diffusion coefficient of water (ADC). Transverse relaxation (T2) will be assessed for tissue free-water content using 30 echos (TE: 1.3 ms-240 ms) using multiecho-spin echo approaches. Longitudinal relaxation (T1) is assessed using EPI-inversion recovery (T1: 0.1 s-7 s, TR 8 s). Tissue Oxygenation: Bold Oxygen Level Dependent (BOLD) measurements were made during a hyperoxia challenge. MRI begins while animals are exposed to 20% O2/80% N2 (6 min) and imaging continues while the inspired gas is switched to 100% O2, maintained for 6 minutes, then returned to normal room air levels. BOLD image signal intensity (echo-planer T2* weighted imaging) is inversely sensitive to deoxyHb levels, such that an increase in deoxyHb/oxyHb ratio causes a decrease in BOLD signal, while a decrease in this ratio causes an increase in BOLD signal intensity. Perfusion measurements: Quantitative perfusion measurements (FAIR-Quipps) employ a volume coil for arterial labeling, and surface coil for signal measurement, and a TI of 1200 ms. Water diffusion coefficient: DTI data were collected using a 7 direction assessment, from which both the mean diffusivity (DTI-MD) and fractional anisotropy (DTI-FA) were obtained. DTI-FA provides a measure of white matter integrity and DTI-MD, along with tissue T2 provides a measure of tissue inflammation.
Data Analysis & Interpretation: All images are co-registered to a template using FSL tools (FMRIB Software library, Oxford, UK). The template was constructed of an averaged high-resolution averaged T2-weighted image from 3 co-registered BERK mice, or 3 co-registered C57bl mice. Regions of interest (ROI's) were drawn from standard atlases (Paxonis) on the template, and include white matter (CC and External Caudate), gray matter (Somatosensory, Motor, Frontal, Parietal) Cortex, hippocampus, basal ganglia, cingulate, and others) and cranial muscle from the anterior region of the head. Image data was converted from native format to NIFTI format, intensity flattened, phase corrected, orientation corrected, and registered to the template. Perfusion, BOLD activation ratios and metabolite ratios were calculated using MATLAB (Mathworks, Natick, Mass.). Parameter maps were calculated using a non-linear least squares in Matlab, or using the FMRIB FSL-based Diffusion Toolbox (DTIFIT). Registration was accomplished using the FSL-FLIRT routine. […]

Test [4] has as its system Berkeley mice. Nature of the test: BOLD MRI during hyperoxia challenge (tissue oxygenation, deoxyHb/oxyHb ratio) in Berkeley mice. The settings on record: single oral dose 400 mg/kg, gavage. As to the method: as §1, with “BOLD image signal intensity (echo-planer T2* weighted imaging) is inversely sensitive to deoxyHb levels, such that an increase in deoxyHb/oxyHb ratio causes a decrease in BOLD signal, while a decrease in this ratio causes an increase in BOLD signal intensity.” left out, “Water diffusion coefficient: DTI data were collected using a 7 direction assessment, from which both the mean diffusivity (DTI-MD) and fractional anisotropy (DTI-FA) were obtained. DTI-FA provides a measure of white matter integrity and DTI-MD, along with tissue T2 provides a measure of tissue inflammation.” left out
Data Analysis & Interpretation: All images are co-registered to a template using FSL tools (FMRIB Software library, Oxford, UK). […] Perfusion, BOLD activation ratios and metabolite ratios were calculated using MATLAB (Mathworks, Natick, Mass.). Parameter maps were calculated using a non-linear least squares in Matlab, or using the FMRIB FSL-based Diffusion Toolbox (DTIFIT). […]

Setting [5] is: single i.p. dose 400 mg/kg, 16 h hypoxia, 3 h reoxygenation, cremaster venules.

Turning to `Cc1ncc(CO)c(CN)c1O` [pyridoxamine], in test [1], the “hypoxia/reoxygenation induced endothelial activation” value is reported as “ameliorated”. The “change in venule diameter” value in test [2] (single i.p. dose 400 mg/kg, 16 h hypoxia, 3 h reoxygenation, 400 mg/kg) is “minimal change”. Besides, in test [2] (setting [5]), the “decrease in leukocyte adhesion” value was 84%, the “decrease in leukocyte emigration” value stood at 95%, the “decrease in rolling leukocytes” value is 24% and the “increase in red blood cell flow velocity (Vrbc)” value was 42%. In test [2] (setting [5]), the “increase in wall shear rate” value is given as 92%. Besides, in test [2] (single i.p. dose, NY1DD mice exposed to hypoxic stress), the “hypoxia/reoxygenation induced endothelial activation” value is recorded as “ameliorated”. Further, the “time of maximum effect on cerebral blood flow (CBF)” value in test [3] (single oral dose 400 mg/kg, gavage) turned out to be 72 h. For the same compound, the “effect on cerebral blood flow (CBF)” value in test [3] (single oral dose 400 mg/kg, gavage, versus C57 wild type) is recorded as “normalized the CBF to near wild type”. For the same compound, the “time of maximum response of brain perfusion” value in test [3] (single oral dose 100-400 mg/kg) came out at 72 h. The “effect on perfusion in the brain” value in test [3] (single oral dose 100-400 mg/kg, versus wild type C57BL mice) was “normalized perfusion in the brain of Berkeley mice to wild type values”. Moreover, the “duration of sustained effects of treatment” value in test [3] (transgenic mouse models of SCD, single dose) is “up to 9 days”. In addition, the “deoxygenated hemoglobin/oxygenated hemoglobin ratio in brain after treatment” value in test [4] (72 h after treatment) is recorded as “significant decrease”. In addition, in test [4] (brain), the “time of maximum effect on brain deoxyHb/oxyHb ratio (BOLD)” value was found to be 72 h. Further, in test [4] (cranial muscle), the “time of maximal effect on cranial muscle BOLD signal (oxyhemoglobin increase)” value was found to be 72 h.
